From paper PMC4735555, “Crystal structure of the N-myristoylated lipopeptide-bound MHC class I complex” (Nature Communications, 2016) come the findings set out here.

Assay [1] deals with Mamu-B*098. Description: Biolayer interferometry binding to β2m-linked Mamu-B*098. The arrangement: species or system rhesus macaque. The settings on record: Octet RED96; biotinylated β2m-linked Mamu-B*098; lipopeptide 10 μM, 45 min, then 30 min without; 20 mM Tris-HCl pH 7.5, 150 mM NaCl, 2% DMSO; 30 °C; representative of three independent experiments. An excerpt:
(§1) Single-chain MHC proteins in which β2m was linked via a Gly-Ser linker (GGGGSGGSGSGGGSS) to the ectodomain of either Mamu-B*098 or Mamu-A*02, followed by a biotinylation sequence peptide (LHHILDAQKMVWNHR), were also expressed in E. coli and were purified in a similar manner to the trimer complex of Mamu-B*098, β2m and C14nef5. The β2m-linked Mamu-B*098 protein was refolded without C14nef5, whereas the β2m-linked Mamu-A*02 protein was refolded in the presence of the YY9 peptide (YTSGPGIRY). These recombinant proteins (3 mg) were biotinylated by being incubated for 12 h at 20 °C with 2 μg of BirA enzyme (Sigma-Aldrich, St Louis, MO) in a biotinylation buffer containing 100 mM Tris-HCl pH 8.0, 5 mM MgCl2, 4.5 mM ATP and 4 mM D-biotin, and were purified by size-exclusion chromatography.
(§2) The binding of ligands to MHC class I molecules was analysed using the Octet RED96 system equipped with a streptavidin-conjugated biosensor (Pall ForteBio, Menlo Park, CA) according to the manufacturer's instructions. Biotinylated β2m-linked Mamu-B*098 and Mamu-A*02 proteins were immobilized on the sensor tip surface with a signal magnitude of ∼5.0 nm. […] After reference subtraction, binding signals were analysed using the BIAevaluation 3.1 software. […]
Background: BLI is a label-free optical method that tracks binding on a fibre tip over time.

The test system of assay [2] is 2N5.1 (Mamu-B*098 Cys167 to Ser mutant). Description: Presentation of C14nef5 to 2N5.1 by the cysteine to serine (position 167) mutant of Mamu-B*098. It counts as cell-based, rhesus macaque. As to conditions: data not shown.
Assay [3] concerns Mamu-A*02. Description: Biolayer interferometry binding to β2m-linked Mamu-A*02. Set-up: species or system rhesus macaque. The settings on record: Octet RED96; biotinylated β2m-linked Mamu-A*02 (refolded with YY9), negative control; lipopeptide 10 μM, 45 min; pH 7.5, 2% DMSO; 30 °C.
Source text: as §1, §2

On to “C14-Gly-Gly-Ala-Ile-Ser [C14nef5, N-myristoylated 5-mer peptide (C14-Gly-Gly-Ala-Ile-Ser; C14nef5) derived from the SIV Nef protein]”, for which, in assay [1], the “physical interaction with immobilized Mamu-B*098 (biolayer interferometry)” value is given as “demonstrated for Mamu-B*098”. In addition, the “effect of Cys167 to Ser mutation on ability of Mamu-B*098 to present C14nef5 to 2N5.1” value in assay [2] was “affected neither the overall secondary structure nor the ability of Mamu-B*098 to present C14nef5 to 2N5.1”. Besides, in assay [3], the “physical interaction with immobilized Mamu-A*02 (biolayer interferometry)” value is given as “not for the control protein Mamu-A*02”.
